Laboratory results reported in ChEMBL document CHEMBL1140060, “Design, synthesis and biological evaluation of dihydronaphthalene and benzosuberene analogs of the combretastatins as inhibitors of tubulin polymerization in cancer chemotherapy” (Bioorg Med Chem, 2008).

Columns and labels:
DU-145 = experiment: Growth inhibition of human DU145 after 48 hrs by SRB assay; type: functional; conditions: DU-145, 48 h
NCI-H460 = experiment: Growth inhibition of human NCI-H460 after 48 hrs by SRB assay; type: functional; conditions: NCI-H460, 48 h
[1] = Inhibition of calf brain tubulin polymerization; set-up: species or system Bos taurus
SK-OV-3 = experiment: Growth inhibition of human SK-OV-3 after 48 hrs by SRB assay; type: functional; conditions: SK-OV-3, 48 h

COc1ccc(C(=O)C2=CCCc3c2cc(OC)c(OC)c3OC)cc1O
GI50 (DU-145): 3100 nM | GI50 (NCI-H460): 6000 nM | IC50 [1]: 24000 nM

COc1ccc(C(=O)C2=CCCCc3c2cc(OC)c(OC)c3OC)cc1O
GI50 (DU-145): > 10000 nM | GI50 (NCI-H460): > 10000 nM | IC50 [1]: > 40000 nM

COc1ccc(C(=O)C2=CCCCc3c2cc(OC)c(OC)c3OC)c(O)c1O
GI50 (DU-145): > 10000 nM | GI50 (NCI-H460): > 10000 nM | IC50 [1]: > 40000 nM

COc1ccc(C(=O)C2=CCCc3c2cc(OC)c(OC)c3OC)c(O)c1O
GI50 (SK-OV-3): 1400 nM | GI50 (DU-145): 3400 nM | GI50 (NCI-H460): 2800 nM | IC50 [1]: > 40000 nM

COc1ccc2c(c1O)CCCC=C2c1cc(OC)c(OC)c(OC)c1
GI50 (SK-OV-3): < 0.03 nM | GI50 (DU-145): 0.0032 nM | GI50 (NCI-H460): 0.028 nM | IC50 [1]: 1700 nM

COc1ccc(/C=C\c2cc(OC)c(OC)c(OC)c2)c(O)c1O [COMBRETASTATIN A-1]
GI50 (DU-145): 510 nM | GI50 (NCI-H460): 2200 nM

COc1ccc2c(c1)CCCC(c1cc(OC)c(OC)c(OC)c1)=C2
GI50 (SK-OV-3): 440 nM | GI50 (DU-145): 550 nM | GI50 (NCI-H460): 470 nM | IC50 [1]: > 40000 nM

COc1ccc2c(c1O)CCCC(c1cc(OC)c(OC)c(OC)c1)=C2
GI50 (SK-OV-3): 270 nM | GI50 (DU-145): 440 nM | GI50 (NCI-H460): 1200 nM | IC50 [1]: > 40000 nM

COc1ccc(CC2CCCCc3c2cc(OC)c(OC)c3OC)c(O)c1O (stereo not given)
GI50 (DU-145): > 10000 nM | GI50 (NCI-H460): > 10000 nM | IC50 [1]: 7400 nM

COc1ccc(/C=C\c2cc(OC)c(OC)c(OC)c2)cc1O [COMBRETASTATIN A4]
GI50 (SK-OV-3): 0.13 nM | GI50 (DU-145): 2 nM | GI50 (NCI-H460): 2 nM

COc1cc2c(cc1O)C(=O)C1c3cc(OC)c(OC)c(OC)c3CCC21 (stereo not given)
GI50 (DU-145): > 10000 nM | GI50 (NCI-H460): > 10000 nM | IC50 [1]: > 40000 nM

COc1ccc2c(c1)CCCC=C2c1cc(OC)c(OC)c(OC)c1
GI50 (SK-OV-3): 52 nM | GI50 (DU-145): 27 nM | GI50 (NCI-H460): 51 nM | IC50 [1]: 1400 nM
